Patent US8222219B2, “Glucopyranoside compound” (Mitsubishi Tanabe Pharma Corporation, priority 2003, dated 2012)

molecular target: T1, human SGLT2 (Homo sapiens, UniProt P31639); test: Assay for SGLT2 inhibition (14C-AMG uptake in CHOK1 cells expressing human SGLT2); type: cell-based; settings: not given
T1 construct: expressed in transfected cells; host or cells: CHOK1 (CHO-K1) cells, kept under Geneticin selection
T1 sequence (P31639 1-672): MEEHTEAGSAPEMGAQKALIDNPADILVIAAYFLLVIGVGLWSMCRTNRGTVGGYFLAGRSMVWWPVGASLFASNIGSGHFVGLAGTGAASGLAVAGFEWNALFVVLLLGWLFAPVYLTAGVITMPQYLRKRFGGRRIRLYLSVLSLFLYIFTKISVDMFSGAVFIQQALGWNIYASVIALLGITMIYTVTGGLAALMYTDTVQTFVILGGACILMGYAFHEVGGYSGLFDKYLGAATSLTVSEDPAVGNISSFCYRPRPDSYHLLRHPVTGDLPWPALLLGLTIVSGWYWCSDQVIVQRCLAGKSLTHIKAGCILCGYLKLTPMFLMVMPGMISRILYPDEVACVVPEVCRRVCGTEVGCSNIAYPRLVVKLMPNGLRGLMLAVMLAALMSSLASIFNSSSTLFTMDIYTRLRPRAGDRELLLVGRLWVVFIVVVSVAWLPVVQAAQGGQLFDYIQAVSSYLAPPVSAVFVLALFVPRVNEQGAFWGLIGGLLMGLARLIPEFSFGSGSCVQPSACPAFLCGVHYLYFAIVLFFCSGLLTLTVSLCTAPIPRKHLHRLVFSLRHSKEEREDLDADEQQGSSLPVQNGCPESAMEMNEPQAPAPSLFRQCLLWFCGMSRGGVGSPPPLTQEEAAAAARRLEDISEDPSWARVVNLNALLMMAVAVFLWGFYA
Procedure: 1. Assay for SGLT2 Inhibition
Compounds described in the above examples were used for the SGLT2 inhibition assay.
CHOK1 cells expressing human SGLT2 were seeded in 24-well plates at a density of 400,000 cells/well in F-12 nutrient mixture (Ham's F-12) containing 10% fetal bovine serum, 400 μg/ml Geneticin, 50 units/ml sodium penicillin G (Gibco-BRL) and 50 μg/ml streptomycin sulfate. […] Test compounds were dissolved in DMSO. The final concentration of DMSO was 0.5%. The transport reaction was initiated by addition of 50 μl [^14C]-methyl-α-D-glucopyranoside (^14C-AMG) solution (final concentration, 0.5 mM). After incubation for 2 hours at 37° C., the uptake was stopped by aspiration of the incubation mixture, the cells were washed three times with ice-cold PBS. Then, cells were solubilized with 0.3 N NaOH and aliquots were taken for determination of radioactivity by a liquid scintillation counter. Nonspecific AMG uptake was defined as that which occurred in the presence of 100 μM of phlorizin, a specific inhibitor of sodium-dependent glucose cotransporter. Specific uptake was normalized for the protein concentrations measured by the method of Bradford.

Structure (SMILES) | IC50 [nM]
Cc1ccc([C@@H]2O[C@H](CO)[C@@H](O)[C@H](O)[C@H]2O)cc1Cc1ccc(-c2ccc(F)cc2)s1 [Example 84] | 2.2

same assay, conditions: CHOK1 cells expressing human SGLT2; 14C-AMG uptake 0.5 mM, 2 hours at 37° C.; read-out: IC50

Structure (SMILES) | IC50 [nM]
OC[C@H]1O[C@@H](c2ccc(Cl)c(Cc3ccc(-c4ccccc4F)s3)c2)[C@H](O)[C@@H](O)[C@@H]1O [Example 69] | 7.9
OC[C@H]1O[C@@H](c2ccc(Cl)c(Cc3ccc(-c4ccc(F)cc4)s3)c2)[C@H](O)[C@@H](O)[C@@H]1O [Example 70] | 7
CCOc1ccc(-c2ccc(Cc3cc([C@@H]4O[C@H](CO)[C@@H](O)[C@H](O)[C@H]4O)ccc3Cl)s2)cc1 [Example 71] | 6.6
CCOc1cccc(-c2ccc(Cc3cc([C@@H]4O[C@H](CO)[C@@H](O)[C@H](O)[C@H]4O)ccc3Cl)s2)c1 [Example 72] | 4.6
CCOc1cccc(-c2ccc(Cc3cc([C@@H]4O[C@H](CO)[C@@H](O)[C@H](O)[C@H]4O)ccc3F)s2)c1 [Example 79] | 9
OC[C@H]1O[C@@H](c2ccc(F)c(Cc3ccc(-c4cccc(F)c4)s3)c2)[C@H](O)[C@@H](O)[C@@H]1O [Example 80] | 6.8
Cc1cccc(-c2ccc(Cc3cc([C@@H]4O[C@H](CO)[C@@H](O)[C@H](O)[C@H]4O)ccc3Cl)s2)c1 [Example 87] | 3.4
Cc1ccc([C@@H]2O[C@H](CO)[C@@H](O)[C@H](O)[C@H]2O)cc1Cc1ccc(-c2cccc(N(C)C)c2)s1 [Example 122, 1-(β-D-glucopyranosyl)-3-(5-(3-dimethylaminophenyl)-2-thienylmethyl)-4-methylbenzene] | 8.2
Cc1ccc([C@@H]2O[C@H](CO)[C@@H](O)[C@H](O)[C@H]2O)cc1Cc1ccc(-c2ccc3c(c2)OCO3)s1 [Example 145] | 4
CCOc1cccc(-c2ccc(Cc3cc([C@@H]4O[C@H](CO)[C@@H](O)[C@H](O)[C@H]4O)ccc3Cl)s2)n1 [Example 173, 1-(β-D-glucopyranosyl)-4-chloro-3-(5-(6-ethoxy-2-pyridyl)-2-thienylmethyl)benzene] | 8
Cc1ccc([C@@H]2O[C@H](CO)[C@@H](O)[C@H](O)[C@H]2O)cc1Cc1ccc(-c2ccc(C(F)F)cc2)s1 [Example 176, 1-(β-D-glucopyranosyl)-3-(5-(4-difluoromethylphenyl)-2-thienylmethyl)-4-methylbenzene] | 7.7
OC[C@H]1O[C@@H](c2ccc(Cl)c(Cc3ccc(-c4ccc(C(F)F)cc4)s3)c2)[C@H](O)[C@@H](O)[C@@H]1O [Example 179, 1-(β-D-glucopyranosyl)-4-chloro-3-(5-(4-difluoromethylphenyl)-2-thienylmethyl)benzene] | 9.8
N#Cc1ccc(-c2ccc(Cc3cc([C@@H]4O[C@H](CO)[C@@H](O)[C@H](O)[C@H]4O)ccc3Cl)s2)cc1F [Example 183, 1-(β-D-glucopyranosyl)-4-chloro-3-(5-(4-cyano-3-fluorophenyl)-2-thienylmethyl)benzene] | 9.5
Cc1ccc([C@@H]2O[C@H](CO)[C@@H](O)[C@H](O)[C@H]2O)cc1Cc1ccc(-c2ccc(F)c(C#N)c2)s1 [Example 185, 1-(β-D-glucopyranosyl)-4-methyl-3-(5-(3-cyano-4-fluorophenyl)-2-thienylmethyl)benzene] | 5.6
Cc1ccc([C@@H]2O[C@H](CO)[C@@H](O)[C@H](O)[C@H]2O)cc1Cc1ccc(-c2ccc(C#N)nc2)s1 [Example 186, 1-(β-D-glucopyranosyl)-3-(5-(2-cyano-5-pyridyl)-2-thienylmethyl)-4-methylbenzene] | 5.4
N#Cc1ccc(-c2ccc(Cc3cc([C@@H]4O[C@H](CO)[C@@H](O)[C@H](O)[C@H]4O)ccc3Cl)s2)cn1 [Example 187, 1-(β-D-glucopyranosyl)-4-chloro-3-(5-(2-cyano-5-pyridyl)-2-thienylmethyl)benzene] | 4.3
CCOC(=O)c1ccc(-c2ccc(Cc3cc([C@@H]4O[C@H](CO)[C@@H](O)[C@H](O)[C@H]4O)ccc3Cl)s2)cc1 [Example 191, 1-(β-D-glucopyranosyl)-4-chloro-3-(5-(4-ethoxycarbonylphenyl)-2-thienylmethyl)benzene] | 7.7
O=C(O)c1ccc(-c2ccc(Cc3cc([C@@H]4O[C@H](CO)[C@@H](O)[C@H](O)[C@H]4O)ccc3Cl)s2)cc1 [Example 192, 1-(β-D-glucopyranosyl)-3-(5-(4-carboxyphenyl)-2-thienylmethyl)-4-chlorobenzene] | 7.4
Cc1ccc([C@@H]2O[C@H](CO)[C@@H](O)[C@H](O)[C@H]2O)cc1Cc1ccc(-c2cc(F)cc(F)c2)s1 [Example 201] | 8.2
COc1ccc(-c2ccc(Cc3cc([C@@H]4O[C@H](CO)[C@@H](O)[C@H](O)[C@H]4O)ccc3C)s2)cn1 [Example 209] | 3.9
Cc1ccc([C@@H]2O[C@H](CO)[C@@H](O)[C@H](O)[C@H]2O)cc1Cc1ccc(-c2ccnc(F)c2)s1 [Example 217] | 3.6
Cc1ccc([C@@H]2O[C@H](CO)[C@@H](O)[C@H](O)[C@H]2O)cc1Cc1ccc(-c2ccc(C#N)c(F)c2)s1 [Example 219] | 6.7

The remaining lines, values ahead:

IC50 [nM] | Structure (SMILES)
3.3 | OC[C@H]1O[C@@H](c2ccc(Cl)c(Cc3ccc(-c4ccnc(F)c4)s3)c2)[C@H](O)[C@@H](O)[C@@H]1O [Example 216]
3 | Cc1ccc([C@@H]2O[C@H](CO)[C@@H](O)[C@H](O)[C@H]2O)cc1Cc1ccc(-c2cccc(Cl)c2)s1 [Example 89]
2.8 | Cc1cccc(-c2ccc(Cc3cc([C@@H]4O[C@H](CO)[C@@H](O)[C@H](O)[C@H]4O)ccc3C)s2)c1 [Example 86]
2.6 | OC[C@H]1O[C@@H](c2ccc(Cl)c(Cc3ccc(-c4cccc(Cl)c4)s3)c2)[C@H](O)[C@@H](O)[C@@H]1O [Example 88]
2.6 | CCOc1cccc(-c2ccc(Cc3cc([C@@H]4O[C@H](CO)[C@@H](O)[C@H](O)[C@H]4O)ccc3C)s2)c1 [Example 212]
2.4 | Cc1ccc([C@@H]2O[C@H](CO)[C@@H](O)[C@H](O)[C@H]2O)cc1Cc1ccc(-c2cccc(C(F)F)c2)s1 [Example 130, 1-(β-D-glucopyranosyl)-3-(5-(3-difluoromethylphenyl)-2-thienylmethyl)-4-methylbenzene]
2.4 | COc1cccc(-c2ccc(Cc3cc([C@@H]4O[C@H](CO)[C@@H](O)[C@H](O)[C@H]4O)ccc3C)s2)n1 [Example 208]
2 | COc1cccc(-c2ccc(Cc3cc([C@@H]4O[C@H](CO)[C@@H](O)[C@H](O)[C@H]4O)ccc3C)s2)c1 [Example 90]
2 | Nc1ccc(-c2ccc(Cc3cc([C@@H]4O[C@H](CO)[C@@H](O)[C@H](O)[C@H]4O)ccc3Cl)s2)cc1 [Example 197, 1-(β-D-glucopyranosyl)-3-(5-(4-aminophenyl)-2-thienylmethyl)-4-chlorobenzene]
1.8 | Cc1ccc([C@@H]2O[C@H](CO)[C@@H](O)[C@H](O)[C@H]2O)cc1Cc1ccc(-c2cccc(OC(F)F)c2)s1 [Example 222]
1.7 | OC[C@H]1O[C@@H](c2ccc(Cl)c(Cc3ccc(-c4cccc(F)c4)s3)c2)[C@H](O)[C@@H](O)[C@@H]1O [Example 78]
1.6 | NC(=O)c1ccc(-c2ccc(Cc3cc([C@@H]4O[C@H](CO)[C@@H](O)[C@H](O)[C@H]4O)ccc3Cl)s2)cn1 [Example 188, 1-(β-D-glucopyranosyl)-3-(5-(2-carbamoyl-5-pyridyl)-2-thienylmethyl)-4-chlorobenzene]
1.4 | OC[C@H]1O[C@@H](c2ccc(Cl)c(Cc3ccc(-c4cncs4)s3)c2)[C@H](O)[C@@H](O)[C@@H]1O [Example 204]
1.3 | Cc1ccc([C@@H]2O[C@H](CO)[C@@H](O)[C@H](O)[C@H]2O)cc1Cc1ccc(-c2cccc(F)c2)s1 [Example 83]
1.2 | Cc1ccc([C@@H]2O[C@H](CO)[C@@H](O)[C@H](O)[C@H]2O)cc1Cc1ccc(-c2cccs2)s1 [Example 211]
1 | Cc1ccc([C@@H]2O[C@H](CO)[C@@H](O)[C@H](O)[C@H]2O)cc1Cc1ccc(-c2cscn2)s1 [Example 210]
0.9 | NC(=O)c1ccc(-c2ccc(Cc3cc([C@@H]4O[C@H](CO)[C@@H](O)[C@H](O)[C@H]4O)ccc3Cl)s2)cc1 [Example 193, 1-(β-D-glucopyranosyl)-3-(5-(4-carbamoylphenyl)-2-thienylmethyl)-4-chlorobenzene]
0.6 | OC[C@H]1O[C@@H](c2ccc(Cl)c(Cc3ccc(-c4cscn4)s3)c2)[C@H](O)[C@@H](O)[C@@H]1O [Example 207]
